Experimental data reported in patent US20220088016A1, “CANCER TREATMENT USING MULTI-TARGETED KINASE INHIBITOR IN COMBINATION OF PROTEIN KINASE BIOMARKERS” (ZHEJIANG CROWNMAB BIOTECH CO. LTD., priority 2019, published 2022).

Assays:
Assay in all cases: Kinase profiling
Format in all cases: binding
Settings in all cases: read-out: % Ctrl @ 1000 nM
[1] = target: RPS6KA5 (Kin.Dom.2-C-terminal) (Homo sapiens, UniProt O75582)
WEE1 = WEE1 (Homo sapiens, UniProt P30291)
ACVR2B = ACVR2B (Homo sapiens, UniProt Q13705)
ZAP70 = ZAP70 (Homo sapiens, UniProt P43403)
YES = YES (Homo sapiens, UniProt P07947)
VPS34 = VPS34 (Homo sapiens, UniProt Q8NEB9)
ERK4 = ERK4 (Homo sapiens, UniProt P31152)
OSR1 = target: T1, OSR1 (Homo sapiens, UniProt O95747)
T1 construct: T7 phage fusion (said for most assays); made in house

WNK3 = WNK3 (Homo sapiens, UniProt Q9BYP7)
EPHB2 = EPHB2 (Homo sapiens, UniProt P29323)
PRKR = PRKR (Homo sapiens, UniProt P19525)
GSK3A = GSK3A (Homo sapiens, UniProt P49840)
FLT3 (D835V) = FLT3 (D835V) (Homo sapiens, UniProt P36888, D835V)
YANK1 = YANK1 (Homo sapiens, UniProt Q8WU08)
TRKB = TRKB (Homo sapiens, UniProt Q16620)
MET = target: T2, MET (Homo sapiens, UniProt P08581)
T2 construct: T7 phage fusion (stated for most kinases of the panel only); made in house; host or cells: T7 phage in E. coli (BL21-derived) or HEK-293 cells

CSNK2A1 = CSNK2A1 (Homo sapiens, UniProt P68400)
MAPKAPK2 = MAPKAPK2 (Homo sapiens, UniProt P49137)
FLT3 = FLT3 (Homo sapiens, UniProt P36888)
ERK8 = ERK8 (Homo sapiens, UniProt Q8TD08)
PRKX = PRKX (Homo sapiens, UniProt P51817)
[2] = target: JAK2 (JH1domain-catalytic) (Homo sapiens, UniProt O60674)
MARK1 = MARK1 (Homo sapiens, UniProt Q9P0L2)
BMPR2 = BMPR2 (Homo sapiens, UniProt Q13873)
PDPK1 = PDPK1 (Homo sapiens, UniProt O15530)
CSNK1A1 = CSNK1A1 (Homo sapiens, UniProt P48729)
PIK3CD = PIK3CD (Homo sapiens, UniProt O00329)
[3] = target: ABL1 (H396P)-nonphosphorylated (Homo sapiens, UniProt P00519, H396P)
TAOK1 = TAOK1 (Homo sapiens, UniProt Q7L7X3)
S6K1 = S6K1 (Homo sapiens, UniProt P23443)
LKB1 = LKB1 (Homo sapiens, UniProt Q15831)
PRKD2 = PRKD2 (Homo sapiens, UniProt Q9BZL6)
MAP3K2 = MAP3K2 (Homo sapiens, UniProt Q9Y2U5)
ANKK1 = ANKK1 (Homo sapiens, UniProt Q8NFD2)
[4] = target: ABL1 (Y253F)-phosphorylated (Homo sapiens, UniProt P00519, Y253F)
PRKD3 = PRKD3 (Homo sapiens, UniProt O94806)
RET = RET (Homo sapiens, UniProt P07949)
TAOK3 = TAOK3 (Homo sapiens, UniProt Q9H2K8)
[5] = target: RSK2 (Kin.Dom.2-C-terminal) (Homo sapiens, UniProt P51812)
Sequence of RSK2 (Kin.Dom.2-C-terminal) (P51812 422-679 limits assumed): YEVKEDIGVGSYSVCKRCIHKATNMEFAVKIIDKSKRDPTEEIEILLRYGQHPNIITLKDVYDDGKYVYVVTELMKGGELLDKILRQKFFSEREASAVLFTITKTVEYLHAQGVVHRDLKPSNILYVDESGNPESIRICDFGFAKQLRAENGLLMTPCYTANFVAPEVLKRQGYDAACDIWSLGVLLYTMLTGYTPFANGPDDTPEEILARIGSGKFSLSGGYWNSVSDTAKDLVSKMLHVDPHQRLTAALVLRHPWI

Sequence of GSK3A (P49840 whole entry): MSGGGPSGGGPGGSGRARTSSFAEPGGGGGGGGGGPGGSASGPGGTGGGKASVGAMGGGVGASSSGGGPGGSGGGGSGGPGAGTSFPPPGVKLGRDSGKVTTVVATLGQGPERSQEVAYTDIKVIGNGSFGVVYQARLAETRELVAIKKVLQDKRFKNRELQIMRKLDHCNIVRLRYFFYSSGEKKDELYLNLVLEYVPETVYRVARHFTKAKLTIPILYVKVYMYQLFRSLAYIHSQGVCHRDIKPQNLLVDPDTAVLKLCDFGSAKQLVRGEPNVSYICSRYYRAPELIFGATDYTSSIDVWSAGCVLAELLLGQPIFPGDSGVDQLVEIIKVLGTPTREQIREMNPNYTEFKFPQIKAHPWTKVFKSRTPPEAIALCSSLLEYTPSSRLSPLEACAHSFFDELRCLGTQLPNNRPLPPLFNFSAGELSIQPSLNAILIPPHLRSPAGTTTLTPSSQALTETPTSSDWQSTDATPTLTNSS
Sequence of VPS34 (Q8NEB9 whole entry): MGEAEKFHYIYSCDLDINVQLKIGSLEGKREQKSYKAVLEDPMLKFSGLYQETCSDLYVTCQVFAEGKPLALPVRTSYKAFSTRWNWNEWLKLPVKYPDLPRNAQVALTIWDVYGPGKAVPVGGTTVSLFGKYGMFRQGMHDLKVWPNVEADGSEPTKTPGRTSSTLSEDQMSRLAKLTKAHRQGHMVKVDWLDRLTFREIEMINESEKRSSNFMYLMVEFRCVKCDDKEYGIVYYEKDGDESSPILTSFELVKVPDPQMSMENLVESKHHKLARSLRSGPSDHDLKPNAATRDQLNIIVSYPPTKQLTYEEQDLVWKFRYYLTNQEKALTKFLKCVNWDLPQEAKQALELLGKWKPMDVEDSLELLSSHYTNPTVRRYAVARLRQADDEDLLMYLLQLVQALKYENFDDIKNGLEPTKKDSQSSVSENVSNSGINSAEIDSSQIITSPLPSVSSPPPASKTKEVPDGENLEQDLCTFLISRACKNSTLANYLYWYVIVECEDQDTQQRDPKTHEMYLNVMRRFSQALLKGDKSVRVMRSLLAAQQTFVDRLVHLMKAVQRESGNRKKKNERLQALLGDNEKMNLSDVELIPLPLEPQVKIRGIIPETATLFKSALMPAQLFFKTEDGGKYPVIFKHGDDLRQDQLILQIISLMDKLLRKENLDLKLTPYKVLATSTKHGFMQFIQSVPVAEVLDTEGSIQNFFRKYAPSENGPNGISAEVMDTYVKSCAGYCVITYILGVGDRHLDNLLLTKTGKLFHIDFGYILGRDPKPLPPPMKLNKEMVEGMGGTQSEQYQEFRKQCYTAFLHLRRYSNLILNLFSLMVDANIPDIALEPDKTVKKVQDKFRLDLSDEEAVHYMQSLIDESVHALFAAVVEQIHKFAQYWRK
Sequence of ACVR2B (Q13705 19-512): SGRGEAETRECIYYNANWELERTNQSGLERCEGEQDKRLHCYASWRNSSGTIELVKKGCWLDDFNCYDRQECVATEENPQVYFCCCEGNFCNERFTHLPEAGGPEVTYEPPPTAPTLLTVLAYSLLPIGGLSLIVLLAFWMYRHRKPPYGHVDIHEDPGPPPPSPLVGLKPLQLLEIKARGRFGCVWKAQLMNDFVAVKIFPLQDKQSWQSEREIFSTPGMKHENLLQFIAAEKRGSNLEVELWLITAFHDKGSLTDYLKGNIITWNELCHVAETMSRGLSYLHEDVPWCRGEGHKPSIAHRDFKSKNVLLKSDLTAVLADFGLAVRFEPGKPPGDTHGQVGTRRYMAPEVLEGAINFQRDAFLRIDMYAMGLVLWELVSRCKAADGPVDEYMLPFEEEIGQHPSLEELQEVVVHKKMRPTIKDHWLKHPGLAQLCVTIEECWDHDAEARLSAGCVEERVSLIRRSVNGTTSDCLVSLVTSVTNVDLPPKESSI
Sequence of ERK8 (Q8TD08 whole entry): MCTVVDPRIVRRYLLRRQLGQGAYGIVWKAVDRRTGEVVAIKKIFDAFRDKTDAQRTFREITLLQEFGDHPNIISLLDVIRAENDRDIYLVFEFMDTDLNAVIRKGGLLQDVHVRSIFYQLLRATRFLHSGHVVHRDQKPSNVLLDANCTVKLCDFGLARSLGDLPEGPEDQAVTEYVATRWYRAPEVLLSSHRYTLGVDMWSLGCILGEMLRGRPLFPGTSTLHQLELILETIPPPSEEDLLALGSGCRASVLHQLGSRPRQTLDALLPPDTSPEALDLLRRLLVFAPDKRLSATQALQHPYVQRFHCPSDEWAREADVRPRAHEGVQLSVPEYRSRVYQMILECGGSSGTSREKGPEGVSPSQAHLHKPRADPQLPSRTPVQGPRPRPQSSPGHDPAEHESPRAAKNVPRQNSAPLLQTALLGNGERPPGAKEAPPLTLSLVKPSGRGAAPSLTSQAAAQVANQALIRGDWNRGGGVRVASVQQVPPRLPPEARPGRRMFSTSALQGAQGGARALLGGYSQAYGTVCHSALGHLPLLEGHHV
Sequence of ANKK1 (Q8NFD2 whole entry): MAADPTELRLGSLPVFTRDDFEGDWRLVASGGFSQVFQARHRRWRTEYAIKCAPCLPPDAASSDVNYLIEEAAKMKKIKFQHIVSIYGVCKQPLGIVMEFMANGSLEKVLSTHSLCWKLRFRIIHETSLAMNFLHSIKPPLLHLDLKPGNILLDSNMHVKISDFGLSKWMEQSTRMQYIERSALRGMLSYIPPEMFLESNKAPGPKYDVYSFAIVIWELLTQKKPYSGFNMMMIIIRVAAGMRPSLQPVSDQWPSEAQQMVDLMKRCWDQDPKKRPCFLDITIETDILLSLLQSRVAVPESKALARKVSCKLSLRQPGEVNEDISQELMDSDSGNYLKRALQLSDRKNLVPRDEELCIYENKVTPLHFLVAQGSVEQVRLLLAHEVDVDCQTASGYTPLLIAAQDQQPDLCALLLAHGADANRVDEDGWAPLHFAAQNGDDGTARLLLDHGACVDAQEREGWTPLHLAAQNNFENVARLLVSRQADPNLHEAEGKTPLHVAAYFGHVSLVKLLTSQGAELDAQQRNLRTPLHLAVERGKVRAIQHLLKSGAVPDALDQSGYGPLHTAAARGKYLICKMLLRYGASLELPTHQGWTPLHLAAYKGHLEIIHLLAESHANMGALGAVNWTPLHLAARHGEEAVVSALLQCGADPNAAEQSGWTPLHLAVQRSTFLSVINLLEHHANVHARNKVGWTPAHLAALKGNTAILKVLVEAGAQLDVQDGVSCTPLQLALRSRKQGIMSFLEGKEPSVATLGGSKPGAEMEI
Sequence of PIK3CD (O00329 whole entry): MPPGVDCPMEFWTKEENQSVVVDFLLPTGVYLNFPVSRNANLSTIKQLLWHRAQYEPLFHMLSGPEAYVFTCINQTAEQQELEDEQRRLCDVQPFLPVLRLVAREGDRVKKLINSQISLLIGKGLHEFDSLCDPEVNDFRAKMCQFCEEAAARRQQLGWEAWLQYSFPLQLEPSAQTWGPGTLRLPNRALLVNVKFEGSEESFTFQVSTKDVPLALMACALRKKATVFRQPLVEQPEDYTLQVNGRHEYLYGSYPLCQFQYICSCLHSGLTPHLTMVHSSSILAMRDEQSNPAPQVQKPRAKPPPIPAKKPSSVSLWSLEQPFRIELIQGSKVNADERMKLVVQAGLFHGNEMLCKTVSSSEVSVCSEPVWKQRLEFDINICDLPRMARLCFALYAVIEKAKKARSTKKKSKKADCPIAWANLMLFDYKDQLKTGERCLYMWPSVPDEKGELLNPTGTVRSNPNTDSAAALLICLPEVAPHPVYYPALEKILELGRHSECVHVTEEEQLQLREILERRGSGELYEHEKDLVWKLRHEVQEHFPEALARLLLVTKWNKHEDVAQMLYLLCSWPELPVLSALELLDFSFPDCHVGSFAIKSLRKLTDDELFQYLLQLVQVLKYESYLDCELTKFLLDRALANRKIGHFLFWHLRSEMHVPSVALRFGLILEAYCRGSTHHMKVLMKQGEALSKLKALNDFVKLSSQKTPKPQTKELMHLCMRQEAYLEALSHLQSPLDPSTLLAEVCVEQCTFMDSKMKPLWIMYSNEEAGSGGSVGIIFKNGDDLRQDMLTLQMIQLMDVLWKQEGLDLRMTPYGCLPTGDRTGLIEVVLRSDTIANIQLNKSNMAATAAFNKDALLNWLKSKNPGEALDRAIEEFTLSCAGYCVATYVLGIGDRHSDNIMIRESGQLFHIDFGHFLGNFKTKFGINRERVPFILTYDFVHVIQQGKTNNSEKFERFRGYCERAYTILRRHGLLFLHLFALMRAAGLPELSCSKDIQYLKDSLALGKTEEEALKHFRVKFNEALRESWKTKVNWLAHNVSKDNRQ
Sequence of PRKR (P19525 whole entry): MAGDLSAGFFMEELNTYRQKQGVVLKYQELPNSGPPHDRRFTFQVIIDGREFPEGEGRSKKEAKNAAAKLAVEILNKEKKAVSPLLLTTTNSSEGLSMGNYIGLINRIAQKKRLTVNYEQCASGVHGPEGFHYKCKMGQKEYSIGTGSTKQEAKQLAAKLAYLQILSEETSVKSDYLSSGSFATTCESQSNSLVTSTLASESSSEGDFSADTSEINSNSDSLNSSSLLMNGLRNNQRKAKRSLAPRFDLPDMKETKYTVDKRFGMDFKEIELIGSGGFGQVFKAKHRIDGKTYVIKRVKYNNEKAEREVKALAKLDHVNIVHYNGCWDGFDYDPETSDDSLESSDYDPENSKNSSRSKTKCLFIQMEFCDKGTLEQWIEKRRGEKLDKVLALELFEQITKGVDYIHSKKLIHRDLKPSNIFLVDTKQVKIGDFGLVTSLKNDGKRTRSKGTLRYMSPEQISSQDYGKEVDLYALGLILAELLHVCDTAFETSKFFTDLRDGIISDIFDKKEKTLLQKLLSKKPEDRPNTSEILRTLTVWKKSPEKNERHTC

## Cc1cc(Oc2cc(NC(=O)C3CC3)ncn2)ccc1NC(=O)Nc1ccc(Cl)c(C(F)(F)F)c1 [CBT-102]
[1]
  remaining activity at 1 µM: 100%
WEE1
  remaining activity at 1 µM: 92%
ACVR2B
  remaining activity at 1 µM: 89%
ZAP70
  remaining activity at 1 µM: 90%
YES
  remaining activity at 1 µM: 55%
VPS34
  remaining activity at 1 µM: 80%
ERK4
  remaining activity at 1 µM: 91%
OSR1
  remaining activity at 1 µM: 96%
WNK3
  remaining activity at 1 µM: 100%
EPHB2
  remaining activity at 1 µM: 44%
PRKR
  remaining activity at 1 µM: 92%
GSK3A
  remaining activity at 1 µM: 18%
FLT3 (D835V)
  remaining activity at 1 µM: 95%
YANK1
  remaining activity at 1 µM: 98%
TRKB
  remaining activity at 1 µM: 71%
MET
  remaining activity at 1 µM: 80%
CSNK2A1
  remaining activity at 1 µM: 100%
MAPKAPK2
  remaining activity at 1 µM: 100%
FLT3
  remaining activity at 1 µM: 2.3%
ERK8
  remaining activity at 1 µM: 0.6%
PRKX
  remaining activity at 1 µM: 93%
[2]
  remaining activity at 1 µM: 100%
MARK1
  remaining activity at 1 µM: 100%
BMPR2
  remaining activity at 1 µM: 82%
PDPK1
  remaining activity at 1 µM: 100%
CSNK1A1
  remaining activity at 1 µM: 99%
PIK3CD
  remaining activity at 1 µM: 100%
[3]
  remaining activity at 1 µM: 20%
TAOK1
  remaining activity at 1 µM: 49%
S6K1
  remaining activity at 1 µM: 99%
LKB1
  remaining activity at 1 µM: 100%
PRKD2
  remaining activity at 1 µM: 100%
MAP3K2
  remaining activity at 1 µM: 90%
ANKK1
  remaining activity at 1 µM: 100%
[4]
  remaining activity at 1 µM: 57%
PRKD3
  remaining activity at 1 µM: 91%
RET
  remaining activity at 1 µM: 0%
TAOK3
  remaining activity at 1 µM: 9.6%
[5]
  remaining activity at 1 µM: 83%
